Measurements from paper PMC5100903, “Tissue Kallikrein Inhibitors Based on the Sunflower Trypsin Inhibitor Scaffold – A Potential Therapeutic Intervention for Skin Diseases” (PLoS ONE, 2016).
Like-named read-outs stand apart in the source and are kept apart here. Positions of bridges follow the written chain, without caps; N, C: chain ends. Residues, ends and D or L forms follow the SMILES beside them.

Tests used:
KLK8 = target: T1, KLK8 (Homo sapiens, UniProt O60259); assay: biochemical
T1 construct: purchased R&D
T1 sequence (O60259 33-260): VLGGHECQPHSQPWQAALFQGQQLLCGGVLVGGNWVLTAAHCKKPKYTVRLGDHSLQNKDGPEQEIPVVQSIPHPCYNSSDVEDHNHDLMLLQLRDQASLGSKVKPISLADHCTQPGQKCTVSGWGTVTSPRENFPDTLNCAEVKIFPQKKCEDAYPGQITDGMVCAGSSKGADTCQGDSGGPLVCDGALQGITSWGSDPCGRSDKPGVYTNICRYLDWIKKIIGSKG
Procedure: (§1) All assays were performed on 96-well microplates and the change in relative fluorescence unit (RFU) was measured by fluorescence spectrometer (BMG FLUOstar OPTIMA). The excitation/emission wavelength was 360/460 nm for the substrate Boc-VPR-AMC (Bachem AG, Hauptstrasse, Switzerland) and MeOSuc-AAPV-AMC (Bachem AG, Hauptstrasse, Switzerland) and 485/520 nm for BODIPY_FL casein (Invitrogen, Carlsbad, US). Stock solution of Boc-VPR-AMC was prepared by dissolving the solid in dimethyl sulfoxide to 100 mM and 10 mM for MeOSuc-AAPV. For BODIPY_FL casein, it was reconstituted to 1 mg/mL in 1xPBS. […] The % of inhibition was calculated by the following equation: % of Inhibition=(1−(Sample RFU − Min RFU)/(Max RFU − Min RFU)) X100
(§2) Each inhibition curves were done in triplicates with a minimum of five concentration points fitted. Fitting of each curve was done using SigmaPlot with the Four Parameter Logistic Function and the IC50 calculated. […] All tested compounds were reconstituted to stock solution in water.
Recombinant KLK7, KLK8 and KLK14 (>95% purity by SDS-PAGE, endotoxin <0.1 ng/μg, R&D, Minneapolis, U.S.) stocks were diluted with 1xPBS to a concentration of 120 nM. KLK7 and KLK14 were activated by addition of 1 mM f/c CaCl2 (Sigma, Dorset, U.K.), 0.05% v/v Brij35 (Sigma, Dorset, U.K.), 20 nM f/c thermolysin (Sigma, Dorset, U.K.) and incubated at 37°C for 1 hour. The reaction was stopped by addition of ethylenediaminetetraacetic acid (EDTA, 50 mM f/c). KLK8 was activated by addition of 11 nM f/c lysyl endopeptidase (Santa Cruz Biotechnology, Dallas, U.S.) and incubation at 37°C for 0.5 hour. […] The RFU value reached by the thermolysin control was used as the minimum RFU for calculating the % of inhibition for KLK7.
(§3) The diluent for all the tested compounds, protein and substrate (except KLK7, which was done with 10 mM Tris pH 7.8) was 1xPBS pH 8.0–8.9. The serially diluted ligands were mixed with diluted bovine trypsin (Sigma, Dorset, U.K.) or activated KLK14, or KLK5, or activated KLK8 or matriptase (catalytic domain only, >90% purity by SDS-PAGE, endotoxin <0.1 ng/μg, R&D, Minneapolis, U.S.) or activated KLK7 or human neutrophil elastase (purified from human plasma, >95% purity by SDS-PAGE, Abcam, Cambridge, U.K.) or porcine pancreatic elastase 1 (Sigma, Dorset, U.K.) or human plasma kallikrein or human plasma plasmin (purified from human plasma, ≥95% purity by SDS-PAGE, BioVision, Milpitas, U.S.). 20μL of the ligand-protein mixture was pipetted to a well of a 96-well microplate in triplicates. The reaction was started by addition of 90–100 μL of the diluted substrate solution (contained 0.05% v/v Brij35) and the plate incubated at 25°C but 37°C for KLK7. RFU reading for each well was taken 6 minutes (trypsin) or 15 minutes (KLK14, KLK5, KLK8, matriptase, human neutrophil elastase, porcine pancreatic elastase 1, plasma kallikrein and plasmin) or 20 hours (KLK7) after substrate addition.

[1] = target: T2, Porcine Pancreatic Elastase 1 (Sus scrofa, UniProt P00772); assay: Porcine pancreatic elastase 1 inhibition, MeOSuc-AAPV-AMC assay; type: biochemical; conditions: read-out: % inhibition of Porcine Pancreatic Elastase 1
T2 construct: purchased Sigma
Procedure: as §1, §2, §3

Bovine Trypsin = target: T3, Bovine Trypsin (Bos taurus, UniProt P00760); assay: biochemical
T3 construct: purchased Sigma
T3 sequence (P00760 24-246): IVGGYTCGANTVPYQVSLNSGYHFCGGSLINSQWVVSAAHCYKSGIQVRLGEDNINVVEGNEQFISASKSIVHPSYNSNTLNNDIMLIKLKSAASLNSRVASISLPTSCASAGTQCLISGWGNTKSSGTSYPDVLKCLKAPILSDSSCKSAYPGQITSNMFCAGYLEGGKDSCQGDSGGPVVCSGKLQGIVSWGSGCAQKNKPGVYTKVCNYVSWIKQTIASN
Procedure: as §1, with “The excitation/emission wavelength was 360/460 nm for the substrate Boc-VPR-AMC (Bachem AG, Hauptstrasse, Switzerland) and MeOSuc-AAPV-AMC (Bachem AG, Hauptstrasse, Switzerland) and 485/520 nm for BODIPY_FL casein (Invitrogen, Carlsbad, US).” left out
as §2
The diluent for all the tested compounds, protein and substrate (except KLK7, which was done with 10 mM Tris pH 7.8) was 1xPBS pH 8.0–8.9. […] 20μL of the ligand-protein mixture was pipetted to a well of a 96-well microplate in triplicates. The reaction was started by addition of 90–100 μL of the diluted substrate solution (contained 0.05% v/v Brij35) and the plate incubated at 25°C but 37°C for KLK7. RFU reading for each well was taken 6 minutes (trypsin) or 15 minutes (KLK14, KLK5, KLK8, matriptase, human neutrophil elastase, porcine pancreatic elastase 1, plasma kallikrein and plasmin) or 20 hours (KLK7) after substrate addition.

[2] = enzyme 9 nM, Boc-VPR-AMC 42 μM, 25°C, 15 minutes
[3] = at 10 μM, enzyme 46 nM, MeOSuc-AAPV-AMC 41 μM

T2 sequence (P00772 27-266): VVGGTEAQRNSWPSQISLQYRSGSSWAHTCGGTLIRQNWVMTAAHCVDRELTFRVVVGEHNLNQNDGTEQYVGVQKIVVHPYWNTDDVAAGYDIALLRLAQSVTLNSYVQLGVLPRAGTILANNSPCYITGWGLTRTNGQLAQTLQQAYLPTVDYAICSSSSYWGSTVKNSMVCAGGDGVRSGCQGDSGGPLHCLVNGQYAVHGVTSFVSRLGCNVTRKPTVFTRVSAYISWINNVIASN

| Compound | IC50 (KLK8) [nM] | inhibition at 10 µM [1] [%] | IC50 (Bovine Trypsin) [nM] | IC50 (KLK8; [2]) [nM] | inhibition at 10 µM [1, 3] [%] | IC50 (Bovine Trypsin; enzyme 10 nM, Boc-VPR-AMC 21 μM, 25°C, 6 minutes) [nM] |
| --- | --- | --- | --- | --- | --- | --- |
| CC[C@H](C)[C@@H]1NC(=O)[C@H](CO)NC(=O)[C@H](CCCNC(=N)N)NC(=O)[C@H]([C@@H](C)O)NC(=O)[C@@H]2CSSC[C@H](NC(=O)[C@H](Cc3c[nH]cn3)NC(=O)[C@@H]3CCCN3C(=O)[C@@H]3CCCN3C1=O)C(=O)N[C@@H](Cc1c[nH]c3ccccc13)C(=O)N1CCC[C@H]1C(=O)N[C@@H](CC(=O)O)C(=O)NCC(=O)N[C@@H](CCCNC(=N)N)C(=O)N2 [Analogue 6] (cyclo(CTRSIPPHCWPDGR); disulfide 1-9) | 373 ± 31 | 0 | 23 ± 1 |  |  |  |
| CC[C@H](C)[C@@H]1NC(=O)[C@H](CO)NC(=O)[C@H](CCCCN)NC(=O)[C@H]([C@@H](C)O)NC(=O)[C@@H]2CSSC[C@H](NC(=O)[C@H](Cc3c[nH]cn3)NC(=O)[C@@H]3CCCN3C(=O)[C@@H]3CCCN3C1=O)C(=O)N[C@@H](Cc1c[nH]c3ccccc13)C(=O)N1CCC[C@H]1C(=O)N[C@@H](CC(=O)O)C(=O)NCC(=O)N[C@@H](CCCNC(=N)N)C(=O)N2 [Analogue 2] (cyclo(CTKSIPPHCWPDGR); disulfide 1-9) | 563 ± 14 | 0 | 20 ± 0.2 |  |  |  |
| CC[C@H](C)[C@@H]1NC(=O)[C@H](CO)NC(=O)[C@H](CCCCN)NC(=O)[C@H]([C@@H](C)O)NC(=O)[C@@H]2CSSC[C@H](NC(=O)[C@H](Cc3c[nH]cn3)NC(=O)[C@@H]3CCCN3C(=O)[C@@H]3CCCN3C1=O)C(=O)N[C@@H](Cc1ccccc1)C(=O)N1CCC[C@H]1C(=O)N[C@@H](CC(=O)O)C(=O)NCC(=O)N[C@@H](CCCNC(=N)N)C(=O)N2 [Analogue I10H] (cyclo(CFPDGRCTKSIPPH); disulfide 1-7) |  |  |  | 1680 ± 51 | 0 | 46 ± 2 |
| CC[C@H](C)[C@@H]1NC(=O)[C@@H]2CCCN2C(=O)[C@@H]2CCCN2C(=O)[C@H]([C@@H](C)CC)NC(=O)[C@H](CO)NC(=O)[C@H](CCCCN)NC(=O)[C@H]([C@@H](C)O)NC(=O)[C@@H]2CSSC[C@H](NC1=O)C(=O)N[C@@H](Cc1ccccc1)C(=O)N1CCC[C@H]1C(=O)N[C@@H](CC(=O)O)C(=O)NCC(=O)N[C@@H](CCCNC(=N)N)C(=O)N2 [Native SFTI, Sunflower Trypsin Inhibitor 1, reference compound] |  |  |  | 1290 ± 251 | 0 |  |
